Test results from the NIST ThermoML archive (doi:10.1016/j.jct.2014.01.025).
Numbers after ± are expanded uncertainties.

Details: Liquid; for Critical pressure: Direct measurement; for Critical temperature: Visual observation in an unstirred cell

SMILES: CO [methanol]
- Critical pressure: 8128 ± 31 kPa
- Critical temperature: 512.3 ± 2.4 K

SMILES: CCCO [propan-1-ol]
- Critical pressure: 5172 ± 31 kPa
- Critical temperature: 537 ± 2.4 K

SMILES: CCCCCCC [heptane]
- Critical pressure: 2761 ± 31 kPa
- Critical temperature: 540 ± 2.4 K

SMILES: CCO [ethanol]
- Critical pressure: 6135 ± 31 kPa
- Critical temperature: 514.2 ± 2.4 K
